PubChem BioAssay (NCI)
Several values for one entry are separate records, joined by “and”; a condition that tells them apart may be missing. Equal values may be shown once.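 In this assay, cells in 96-well plates receive the compound at five concentrations for 48 hours. Endpoints are linearly interpolated between the surrounding concentrations. The concentration for 50% growth inhibition is given as GI50. TGI is the concentration that stops growth completely.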

Tested on: MDA-MB-468 breast
Assay: inhibition of tumour cell growth, NCI panel, 48 h

Row | Structure (SMILES) | GI50 | TGI
1 | Cc1ccc(N2CCN(C3=C(Cl)C(=O)c4ncccc4C3=O)CC2)cc1 | 1.49 µM | 3.04 µM
2 | COc1cc(C)c(-c2ccc(=O)c(OC)cc2C)c(OC)c1OC | > 100 µM and 14 µM | > 100 µM
3 | CC(C)CCOc1ccc(-c2n[nH]c(C(F)(F)F)c2-c2cncc(C#N)c2)c(O)c1 | 1.01 µM | 4.83 µM
4 | CCCCCCCC/C=C/CCCCCCCCC1=NCCN1CCO | 10.3 µM | 26.6 µM
5 | Cc1cc2cc3cc(C)c(N(C)C)cc3nc2cc1N(C)C | 0.8 µM | 9.01 µM
6 | ClC1=C(Cl)C(Cl)=C(Cl)C1=C/C=C/c1ccccc1 | 0.186 µM | 0.433 µM
7 | NC(=NCCCOc1ccc(Cl)cc1)Nc1ccc(Cl)cc1 | 1.71 µM | 3.78 µM
8 | CS(=O)CCCCCN=C=S (centres undefined) | 2.68 µM | 9.94 µM
9 | O=[N+]([O-])c1ccc(-c2nc(-c3ccccc3)c(-c3ccccc3)n2-c2ccccc2)cc1 | 3.77 µM | 12.7 µM
10 | C=C(C)[C@@H]1CC[C@]2(C)[C@H](C(=O)C=C3[C@@H]4C[C@](C)(C(=O)N5CCN(C)CC5)CC[C@]4(C)CC[C@]32C)[C@@]1(C)CCC#N | 5.92 µM | 13.2 µM
11 | CC(=O)N1CC(Nc2ccc(OC(F)(F)F)cc2)=CC1=O | 0.662 µM | 4.74 µM
12 | COc1ccc(C(=O)c2ccc(OC)c(OC)c2OC)cc1 | 0.696 µM | 9.94 µM
13 | CC(C)[C@@]12C[C@@H](OC(=O)[C@H]3CO3)[C@@](C)(O1)[C@@H]1CC[C@@H](C)[C@H]1[C@@H]2OC(=O)/C=C/c1ccccc1 | 13.9 µM | 30.9 µM
14 | NCCCNc1nc2ccccc2c2c(=O)c3cc(C(F)(F)F)ccc3sc12 | 1.53 µM | 2.99 µM
15 | COc1cccc(C2C(C#N)=C(N)Oc3cc(N)ccc32)c1 (centres undefined) | 0.282 µM | 0.987 µM
16 | CCC(C)n1cc(C)c2c(C(=O)NCc3c(C)cc(C)[nH]c3=O)cc(Br)cc21 (centres undefined) | 22.8 µM | > 100 µM
17 | CCCCCCCCCCCCCCCCCC1=NCCN1CS(=O)(=O)O | 16.1 µM | 33.8 µM
18 | NC(CSC(c1ccccc1)(c1ccccc1)c1ccc(Cl)cc1)C(=O)O (centres undefined) | 0.0819 µM | 4.18 µM
19 | CCN(CC)c1cc(/C=C/c2ccc(OC)c(OC)c2)nc2cc(F)c(F)cc12 | 2.49 µM | 10.3 µM

Row | Structure (SMILES) | GI50 | TGI
20 | Cc1nc2sccn2c(=O)c1CCN1CCC(=C(c2ccc(F)cc2)c2ccc(F)cc2)CC1 | 5.05 µM | 19 µM
21 | COc1cc(/C=C/c2cc(/C=C/c3ccc(O)c(OC)c3)n(-c3c(C)cccc3C)c(=O)n2)ccc1O | 0.835 µM | 3.61 µM
22 | CN1CCCNc2c(c(=O)c2=O)NCCCN(C)CCCNc2c(c(=O)c2=O)NCCCN(C)CCCNc2c(c(=O)c2=O)NCCCN(C)CCCNc2c(c(=O)c2=O)NCCCN(C)CCCNc2c(c(=O)c2=O)NCCCN(C)CCCNc2c(c(=O)c2=O)NCCCN(C)CCCNc2c(c(=O)c2=O)NCCC1 | 2 µM | 12 µM
23 | COc1cc(NCCCCN=C(N)NC(N)=NC(C)C)c2ncccc2c1 | 0.106 µM | 0.435 µM
24 | COC(=O)c1ccc2c(c1)nc(-c1cc3ccccc3[nH]c1=O)n2-c1cc(C(C)(C)C)[nH]n1 | 13.7 µM | > 100 µM
25 | CC(=O)c1ccc(NC(=O)CSc2nnc(-c3cc(-c4ccc(C)cc4)nc4ccccc34)o2)cc1 | 3.54 µM | > 100 µM
26 | CC(=O)Nc1ccc(Sc2ccc([N+](=O)[O-])o2)cc1 | 0.933 µM | 2.81 µM
27 | CCCCCCCC/C=C/CCCCCCCC1=NCC[N+]1(CCO)CCO | 1.78 µM | 4.56 µM
28 | CN(C)c1ccc(/C=C(/NC(=O)c2ccccc2)c2nc3ccc(Cl)cc3[nH]2)cc1 | 20.5 µM | 70.5 µM
29 | CC(C)(C)c1nc2c(o1)C(=O)c1ccccc1C2=O | 0.184 µM | 0.564 µM
30 | CCN(CC)CCCNc1cccc2c(SCc3ccccc3)ccnc12 | 1.88 µM | 3.43 µM
31 | Cc1cccc(Oc2nccc(-c3c(-c4ccc(F)cc4)ncn3C3CCNCC3)n2)c1C | 2.95 µM | 6.46 µM
32 | COc1ccccc1-n1c(-c2cc(O)ccc2C)cn2c3c(=O)[nH]c(=O)n(C)c3nc12 | 15.6 µM | > 100 µM
33 | CC1/C=C/C=C/C=C/C=C/C=C/C=C/C=C/C(O[C@@H]2O[C@H](C)[C@H](O)[C@@H](O)[C@@H]2N)CC(O)C(C(=O)O)C(O)CC(=O)CC(O)CC(O)CC(O)CC(=O)CCCC(=O)CC(=O)OC1C(C)CC(C)C(O)CC(=O)c1ccc(N)cc1 (some centres undefined) | 0.0492 µM and 0.223 µM | 0.0989 µM and 0.723 µM
34 | CCOc1ccc([C@@H]2[C@@H](Oc3ccccc3)C(=O)N2c2cc(OC)c(OC)c(OC)c2)cc1 | 0.0459 µM | > 100 µM
35 | N#Cc1c(-c2ccc(Cl)cc2)n(O)c2ccccc12 | 1.63 µM | 4.71 µM
36 | C=C1C[C@](OC)([C@H](O)C(=O)N[C@@H](OC)[C@@H]2C[C@@H](O)C(C)(C)[C@@H](C[C@@H](COC)OC)O2)O[C@H](C)[C@@H]1C | 0.000941 µM | 0.00348 µM
37 | COc1ccc(Nn2c(SCC(=O)Nc3nc(-c4ccc(Cl)cc4)cs3)nc(C)c2C)cc1 | 0.574 µM | 7.73 µM
